Values of other authors in patent US6361800B1 (Cooper Concepts, Inc., priority 2000, dated 2002).
Like-named read-outs stand apart in the source and are kept apart here.

Details: 100 I.U. taken for two years or longer

vitamin E
reduced deaths of coronary artery disease (39,910 male health professionals): 37%
reduced deaths of coronary artery disease (87,245 nurses): 40%
